From US12599671B2, “Compounds, compositions, and methods for protein degradation” (DANA-FARBER CANCER INSTITUTE, INC., priority 2020, dated 2026)

Legend:
Assay type in all cases: cell-based
[1] = system: MV4; 11 WT, MV4; 11 CRBN KO, and MOLM13 cells; experiment: Cell growth ATPlite assay; conditions: Homo sapiens; ATP level by ATPlite, 48 h treatment, normalized to DMSO; cell line not given
Protocol: Human MV4; 11 WT, MV4; 11 CRBN KO, and MOLM13 cells were seeded in 384-well plate and treated with indicated compounds for 48 h. ATP level was measured by ATPlite (PerkinElmer) according to manufactures instructions. Experimental groups were measured in quadruplicate and ATP level was normalized to DMSO. IC50 was analyzed in GraphPad Prism 7.

[2] = molecular target: T1, SMARCA2 (Homo sapiens, UniProt P51531); experiment: Immunoblot of SMARCA2 in A549 cells; parameters: endogenous in cells; host or cells: A549; conditions: 1 μM
T1 sequence (P51531 whole entry): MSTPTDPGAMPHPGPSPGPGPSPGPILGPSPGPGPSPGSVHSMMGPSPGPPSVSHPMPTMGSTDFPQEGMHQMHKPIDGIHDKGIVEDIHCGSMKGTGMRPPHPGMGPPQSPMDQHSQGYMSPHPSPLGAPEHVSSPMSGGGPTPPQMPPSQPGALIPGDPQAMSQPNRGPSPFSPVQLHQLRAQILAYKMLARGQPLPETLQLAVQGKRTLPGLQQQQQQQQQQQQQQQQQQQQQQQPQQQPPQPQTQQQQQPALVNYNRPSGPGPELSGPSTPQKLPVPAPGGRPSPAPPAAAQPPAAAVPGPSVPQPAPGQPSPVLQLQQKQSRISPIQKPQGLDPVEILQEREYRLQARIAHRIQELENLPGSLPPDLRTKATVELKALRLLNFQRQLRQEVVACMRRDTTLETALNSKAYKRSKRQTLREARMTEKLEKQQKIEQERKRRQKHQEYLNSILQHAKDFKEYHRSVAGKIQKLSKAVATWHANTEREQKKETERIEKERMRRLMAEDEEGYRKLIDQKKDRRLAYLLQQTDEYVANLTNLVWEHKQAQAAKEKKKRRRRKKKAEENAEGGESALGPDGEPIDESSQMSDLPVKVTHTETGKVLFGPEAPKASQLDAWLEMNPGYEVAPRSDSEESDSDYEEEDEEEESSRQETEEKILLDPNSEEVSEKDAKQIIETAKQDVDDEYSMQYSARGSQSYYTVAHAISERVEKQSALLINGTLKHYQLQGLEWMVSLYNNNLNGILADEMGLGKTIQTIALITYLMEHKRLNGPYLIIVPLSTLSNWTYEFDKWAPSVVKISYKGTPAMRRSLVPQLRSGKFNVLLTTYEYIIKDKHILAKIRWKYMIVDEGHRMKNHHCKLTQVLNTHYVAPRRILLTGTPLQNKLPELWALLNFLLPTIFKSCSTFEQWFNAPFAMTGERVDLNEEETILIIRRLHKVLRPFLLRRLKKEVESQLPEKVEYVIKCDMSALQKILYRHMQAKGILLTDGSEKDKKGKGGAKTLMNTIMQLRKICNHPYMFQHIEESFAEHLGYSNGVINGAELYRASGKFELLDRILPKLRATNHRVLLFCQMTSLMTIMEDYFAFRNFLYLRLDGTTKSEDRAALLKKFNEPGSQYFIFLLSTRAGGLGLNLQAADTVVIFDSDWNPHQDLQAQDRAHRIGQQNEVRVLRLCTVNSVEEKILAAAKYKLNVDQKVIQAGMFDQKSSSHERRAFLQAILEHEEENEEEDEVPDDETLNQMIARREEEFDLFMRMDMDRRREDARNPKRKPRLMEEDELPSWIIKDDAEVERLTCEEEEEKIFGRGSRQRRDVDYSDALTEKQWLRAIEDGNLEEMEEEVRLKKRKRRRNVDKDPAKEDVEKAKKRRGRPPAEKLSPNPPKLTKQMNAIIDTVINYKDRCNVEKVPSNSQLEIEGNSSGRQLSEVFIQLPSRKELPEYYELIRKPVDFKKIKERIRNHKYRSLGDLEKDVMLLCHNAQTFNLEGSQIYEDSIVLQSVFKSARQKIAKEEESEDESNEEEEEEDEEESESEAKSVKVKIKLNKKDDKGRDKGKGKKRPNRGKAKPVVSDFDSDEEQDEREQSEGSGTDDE
Protocol: (§1) Human A549 were seeded in 6-well plate and treated with Ex. 4 or Ex. 2 for 16, 24 and 40 h. Human MOLM13 were seeded in 6-well plate and treated with Ex. 4 for 6, 10, 16, 24 h. After treatment cells were harvested and lysed in RIPA buffer (Thermo Scientific) with Halt Protease and Phosphatase Inhibitor Cocktail (Thermo Scientific). Protein was extracted and quantified by BCA Protein Assay Kit (Pierce). Protein lysate was separated by NuPAGE 3-8% Tris-Acetate protein gels (Invitrogen) and detected by SMARCA2, PARP and β-ACTIN antibodies (Cell Signaling Technology).

[3] = molecular target: T1, SMARCA2; experiment: Immunoblot of SMARCA2 in MOLM13 cells; parameters: endogenous in cells
Protocol: as §1

O=C1CCC(N2C(=O)c3cccc(NCCCCCCCCNC(=O)c4cccc(C#Cc5cc(NC(=O)Nc6ccnc(Cl)c6)ccn5)c4)c3C2=O)C(=O)N1 (stereo not shown) [Example 2]
IC50 [1]: 0.1 to 1 µM
time after which cells started to exhibit protein degradation (Western Blot) [2]: 40 h

O=C1CCC(N2C(=O)c3cccc(NCCOCCOCCNC(=O)c4cccc(C#Cc5cc(NC(=O)Nc6ccnc(Cl)c6)ccn5)c4)c3C2=O)C(=O)N1 (stereo not shown) [Example 3]
IC50 [1]: 0.1 to 1 µM

O=C1CCC(N2C(=O)c3cccc(NCCCCNC(=O)c4cccc(C#Cc5cc(NC(=O)Nc6ccnc(Cl)c6)ccn5)c4)c3C2=O)C(=O)N1 (stereo not shown) [Example 4]
IC50 [1]: ≤ 0.1 µM
time after which cells started to exhibit protein degradation (Western Blot) [2]: 40 h
time after which cells started to exhibit protein degradation (Western Blot) [3]: 16 h

O=C1CCC(N2C(=O)c3ccc(NCCCCNC(=O)c4cccc(C#Cc5cc(NC(=O)Nc6ccnc(Cl)c6)ccn5)c4)cc3C2=O)C(=O)N1 (stereo not shown) [Example 7]
IC50 [1]: ≤ 0.1 µM

O=C1CCC(N2C(=O)c3ccc(NCCOCCNC(=O)c4cccc(C#Cc5cc(NC(=O)Nc6ccnc(Cl)c6)ccn5)c4)cc3C2=O)C(=O)N1 (stereo not shown) [Example 8]
IC50 [1]: ≤ 0.1 µM

Cc1ncsc1-c1ccc(CNC(=O)[C@@H]2C[C@@H](O)CN2C(=O)[C@@H](NC(=O)CCCCCNC(=O)c2cccc(C#Cc3cc(NC(=O)Nc4ccnc(Cl)c4)ccn3)c2)C(C)(C)C)cc1 [Example 9]
IC50 [1]: > 100 µM

Cc1ncsc1-c1ccc(CNC(=O)[C@@H]2C[C@@H](O)CN2C(=O)[C@@H](NC(=O)COCCOCCOCCNC(=O)c2cccc(C#Cc3cc(NC(=O)Nc4ccnc(Cl)c4)ccn3)c2)C(C)(C)C)cc1 [Example 10]
IC50 [1]: 1 to 10 µM

O=C1CCC(N2C(=O)c3cccc(NCCNC(=O)c4cccc(C#Cc5cc(NC(=O)Nc6ccnc(Cl)c6)ccn5)c4)c3C2=O)C(=O)N1 (stereo not shown) [Example 11]
IC50 [1]: > 100 µM

O=C1CCC(N2C(=O)c3cccc(NCCCCCCNC(=O)c4cccc(C#Cc5cc(NC(=O)Nc6ccnc(Cl)c6)ccn5)c4)c3C2=O)C(=O)N1 (stereo not shown) [Example 12]
IC50 [1]: ≤ 0.1 µM

O=C1CCC(N2C(=O)c3cccc(NCCCCCCCCCCCC(=O)OCc4cnc(Cl)cc4NC(=O)Nc4cc(C(F)F)ns4)c3C2=O)C(=O)N1 (stereo not shown) [Example 14]
IC50 [1]: 1 to 10 µM
